Laboratory results published in article PMC8129133, “Polymer-free corticosteroid dimer implants for controlled and sustained drug delivery” (Nature Communications, 2021).
Values joined by “and” are separate entries in the source; they are usually repeats but may differ in a detail not shown here. Equal entries are not always repeated. Where two headings read alike, the source gives them in different places.

Key:
[1] = cited from earlier work
[2] = test system: LPS-induced stimulation of PGE2 production by primary human monocytes; experiment: LPS induced monocyte activation (PGE2 ELISA); assay type: cell-based; settings: for % Activity: Fig 4h, PGE2 production, one line per donor; for IC50: primary human monocytes, N=3, read-out: IC50, inhibition of LPS-induced PGE2 production
Description: Monocytes were isolated from whole peripheral blood donated by healthy volunteers. Protocols were approved by Health Sciences Research Ethics Board (REB) at the University of Toronto (ethics approval #22203). All experiments were repeated with three distinct donors who provided informed consent. Briefly, whole blood was layered on Histopaque-1077 (Sigma) and the mononuclear cell fraction was isolated by density centrifugation. Platelets were removed through a series of washes. Monocytes were seeded at a density of 200,000/well in a 96-well plate (Becton Dickinson). Medium was changed 2 h post-seeding to remove non-adherent cells. […] Dex derived from degraded Dex-TEG-Dex was prepared by dissolving Dex-TEG-Dex in ethanol at 10 mg/ml, adding to culture medium to achieve a concentration of 10 µg/ml, and subsequent incubation of the solution at 37 °C and 5% CO2 until the dimer had fully degraded, as confirmed by HPLC. […] Samples were incubated for 15 min at 37 °C and 5% CO2, followed by addition of a 2 µl lipopolysaccharide stock solution (LPS, Sigma) to obtain a final concentration of 50 µg/ml. Following overnight exposure to LPS, supernatant was collected and analyzed for PGE2 using a PGE2 ELISA kit according to the manufacturer’s instructions (R&D Systems).

In vitro release = assay type: physicochemical; settings: for Cumulative Dex Release (%), avg / Cumulative Dex Release (ng), avg / Cumulative Dex Release: Fig 6c; for Cumulative Dex Release: single replicates; for Cumulative HC Release: Fig 5c pellet 1x1 mm, 4 ml PBS, samples and avg; for Cumulative HC Release (%): Fig 5c pellet, PBS; for Cumulative Dex Release (%), avg / Cumulative Dex Release (ng), avg / Cumulative HC Release (%): avg
Method: Pellets for release studies. Crystalline drug dimers were weighed on a stainless steel coupon. In the case of blends with a second drug, the dimer and drug were mixed at the desired mass ratio with mortar and pestle prior to weighing. Samples were transferred to a heat press (Carver Laboratory Press). A PTFE mold containing an array of 1 mm diameter holes of 1 mm depth was placed on top of the melt, and pressure was applied for 2 min. Molded pellets were cooled to room temperature and punched out of the mold, yielding a pellet of 1 mm height × 1 mm diameter.
Release studies were carried out using different media, including PBS (pH 7.4, Gibco), 100% FBS (Sigma, F1051), 1% FBS in PBS pH 7.4, and 3.6% BSA (Sigma, A7906) in PBS (pH 7.4, Gibco). […] Samples were incubated in release medium at 37 °C under constant agitation on an orbital shaker at 115 rpm (VWR). At designated timepoints, sampling was performed by complete removal of medium and replenishment with fresh buffer. Sampling timepoints included 24 h and then every 3–4 days thereafter. For PBS release conditions, samples were analyzed directly. For samples with protein (100% FBS, 1% FBS, 3.6% BSA), protein was precipitated by addition of acetonitrile. Samples were vortexed and centrifuged to separate extracted drug from precipitated protein. The supernatant was then analyzed for drug concentration by HPLC.

[3] = rabbit, in vivo
Method: Analysis of samples was conducted using a SCIEX API 5000 mass spectrometer (Applied Biosystems/MDS Sciex), Shimadzu LC-20ADXR HPLC pumps, Shimadzu SCL-10A controller, and HTS-PAL autoinjector (CTC Analytics). Chromatography was performed using a Waters X-Bridge C-18 (3.5 µm; 100 × 2.1 mm) column equipped with a Phenomenex KrudKatcher ULTRA HPLC In-Line Filter (Part AF0-8497). The column was held at a temperature of 40 °C, while the autosampler compartment was maintained at 4 °C. Mobile phases consisted of: (A) 95:5 H2O:MeOH with 2 mM Ammonium Acetate (NH4OAc) and (B) 85:10:5 MeOH:H2O:MeCN with 2 mM NH4OAc. A gradient elution profile was employed, following the trend of: (0 min 30% B), (0.50 min 30% B), (2.50 min 65% B), (2.51 min 100% B), (4.50 min 100% B), (4.51 min 30% B), (6.50 min 30% B). Flow was constant at 0.6 mL min^-1 with an injection volume of 10 µL. For MS parameters, the system was operated in positive ion mode with a TurboIonSpray probe monitoring transitions (±0.2 AMU) of m/z 393.2 → 373.2 for Dex and 397.3 → 377.2 for the Dex-d4 deuterated internal standard. Analyst Version 1.4.2 (Applied Biosystems-MDS Sciex) was used for instrument control, data acquisition, and peak integrations, while calculations including peak area ratios, standard curve regressions, sample concentration values, and descriptive statistics were performed with the assistance of the ALIS2004 validated LIMS.
Dex and internal standard (Dex-d4) were extracted from vitreous humor on ice using protein precipitation. Samples were initially centrifuged at approximately 1500 rcf for 5 min to remove any interfering particulates. Stepwise, the protocol for extraction from vitreous humor was to (1) pipette 50 µL of vitreous humor into an extraction tube; (2) add 13 µL H2O and vortex to mix; (3) add 25 µL internal standard spiking solution (100 ng/mL Dex-d4 in a 1:1 solvent of MeOH:H2O); (4) add 25 µL of make-up reagent (1:1 mixture of MeOH:H2O); (5) vortex mix for 5-10 s at a speed setting of 4 or 5; (6) centrifuge at ~60 rcf for 2 min; (7) add 300 µL of 9:1 MeOH:5 mM NH4OAc at pH 7 to precipitate proteins; (8) cap and vortex mix at full speed for 2 min; (9) Centrifuge at approximately 2700 rcf for 5 min; (10) transfer 300 µL of supernatant to a separate tube; (11) vortex the collected supernatant for 30 s at a low to moderate speed; (12) centrifuge at ~1500 rcf for 5 min; (13) store prepared extract at 4 °C until analysis by LC-MS/MS.
Pharmacokinetics. […] Animals were anesthetized with ketamine (up to ~50 mg/kg) and xylazine (up to ~10 mg/kg). Eyes were surgically prepared before intravitreal procedures with 5% betadine and topical anesthetic eye drops (proparacaine hydrochloride, 0.5%). Prior to test article administration, pupils were dilated with topical application of one drop each of 10% phenylephrine and 1% tropicamide on each cornea.
Implants (30 G × 6 mm Dex-TEG-Dex extruded rods, Ozurdex®) were injected (30 G needle for Dex-TEG-Dex, 22 G needle for Ozurdex®) intravitreally into the eyes of New Zealand White rabbits (female, 1.5–2.5 kg) with terminal timepoints of 1 and 2 weeks and 1, 2, 3, 6, 9, 12, and 14 months. Ocular tissues and plasma were collected at each timepoint and analyzed for Dex by LC/MS/MS. Whole globe eyes were collected into centrifuge tubes and remained frozen for a minimum of 24 h before dissection and tissue collection. During dissection, vitreous humor containing any remaining test article was collected frozen into pre-weighed centrifuge tubes and stored at −80 °C until further processing.

[4] = test system: vascular endothelial growth factor (VEGF) induced blood-retinal barrier breakdown; experiment: Rabbit pharmacodynamics, VEGF-induced vascular leakage; assay type: in vivo, Dutch Belted rabbits; parameters: key to FA Scoring: 0: major vessels straight, some tortuosity of smaller vessels, no vessel dilation; 1: increased tortuosity of major vessels and/or some vessel dilation; 2: leakage between major vessels, significant vessel dilation; 3: leakage between major and minor vessels, minor vessels still visible; 4: leakage between major and minor vessels, minor vessels poorly/not visible; settings: single eyes, Fig 9b
Method: Pharmacodynamics. Rabbit pharmacodynamics studies were performed at Absorption Systems California (San Diego, CA, USA). All studies were conducted in compliance with relevant ethical regulations, including the USDA Animal Welfare Act (i.e., relevant sections of Section 9, Part 1, 2, and 3 of the Code of Federal Regulations) and in compliance with Absorption Systems’ Animal Welfare Assurance filed with the National Institutes of Health. Protocols were reviewed and approved by Absorption Systems’ Institutional Animal Care and Use Committee (IACUC) prior to the initiation of procedures. Treatment of animals was in accordance with conditions specified in the Guide for Care and Use of Laboratory Animals (NRC, 2011, National Academy Press). Animals were anesthetized with intramuscular ketamine hydrochloride (15-20 mg/kg) and xylazine (5 mg/kg) prior to test article injection or vascular leakage induction. The eye area was surgically prepped with 5% betadine and rinsing with balanced salt solution, followed by administration of 1–2 drops of topical proparacaine hydrochloride (0.5%). […] Test articles (27 G × 6 mm, 30 G × 6 mm, and 32 G × 6 mm Dex-TEG-Dex extruded rods, or Ozurdex®) were injected intravitreally in Dutch Belted rabbits (male, 1.84–2.49 kg, 5–6 months) on Day 0 and vascular leakage was induced by an intravitreal injection of VEGF (500 ng/eye) at acute and chronic timepoints (1 week, 2.5, 4.5, 6, 9, 12, and/or 18 months) post-implantation. Post-injection analgesia was provided by 0.02-0.05 mg/kg IM/SC buprenorphine. Negative control rabbits received a sham injection while positive control rabbits received a 2 mg solution dose of triamcinolone acetonide (Kenalog-40). Ophthalmic exams, including fundus microscopy and slit lamp microscopy, were carried out over the 3 days post-VEGF induction and vascular leakage was measured by fluorescein angiography on the third day post-VEGF induction. Eyes were graded based on fundus and fluorescein angiography images using a scoring system as follows[76]: 0 – major vessels straight, some tortuosity of smaller vessels, no vessel dilation; 1 – increased tortuosity of major vessels and/or some vessel dilation; 2 – leakage between major vessels, significant vessel dilation; 3 – leakage between major and minor vessels, minor vessels still visible; and 4 – leakage between major and minor vessels, minor vessels poorly/not visible.

OCCOCCOCCO [TEG, triethylene glycol]
toxicity by systemic routes of administration [1]: no significant adverse toxicity

C[C@@H]1C[C@H]2[C@@H]3CCC4=CC(=O)C=C[C@]4(C)[C@@]3(F)[C@@H](O)C[C@]2(C)[C@@]1(O)C(=O)CO [Dex from Degraded Dex-TEG-Dex]
% Activity ([2]; 0.05 nM, 50 pM): 133.56% and 95.05% and 109.87% | % Activity ([2]; 0.1 nM, 0.0001 µM): 71.31% and 70.97% and 72.68% | % Activity ([2]; 0.5 nM, 0.0005 µM): 92.91% and 70.93% and 94.26% | % Activity ([2]; 1 nM, 0.001 µM): 74.23% and 63.23% and 72.65% | % Activity ([2]; 5 nM, 0.005 µM): 59.75% and 37.69% and 27.50% | % Activity ([2]; 10 nM, 0.01 µM): 60.49% and 37.84% and 31.81% | % Activity ([2]; 100 nM, 0.1 µM): 63.88% and 16.49% and 17.83% | IC50 ([2]; listed as Dex from Dex-TEG-Dex): 0.93 ± 0.49 nM

C[C@@H]1C[C@H]2[C@@H]3CCC4=CC(=O)C=C[C@]4(C)[C@@]3(F)[C@@H](O)C[C@]2(C)[C@@]1(O)C(=O)CO [Dex, dexamethasone, reference compound]
% Activity ([2]; 0.05 nM, 50 pM): 141.66% and 109.12% and 86.18% | % Activity ([2]; 0.1 nM, 0.0001 µM): 118.30% and 90.43% and 82.49% | % Activity ([2]; 0.5 nM, 0.0005 µM): 96.26% and 65.64% and 103.04% | % Activity ([2]; 1 nM, 0.001 µM): 66.03% and 45.78% and 57.92% | % Activity ([2]; 5 nM, 0.005 µM): 74.59% and 37.73% and 56.77% | % Activity ([2]; 10 nM, 0.01 µM): 69.04% and 28.95% and 33.87% | % Activity ([2]; 100 nM, 0.1 µM): 42.88% and 13.38% and 14.89% | IC50 ([2]; Monocyte): 1.52 ± 1.24 nM | Cumulative Dex Release (%), avg (In vitro release; Day 1): 0.0437% | Cumulative Dex Release (ng), avg (In vitro release; Day 1): 365.83 ng | Cumulative Dex Release (In vitro release; Day 1): 489.28 ng and 390.83 ng and 217.38 ng | Cumulative Dex Release (%), avg (In vitro release; Day 3): 0.15% | Cumulative Dex Release (ng), avg (In vitro release; Day 3): 1234.13 ng | Cumulative Dex Release (In vitro release; Day 3): 1469.66 ng and 1518.28 ng and 714.45 ng | Cumulative Dex Release (%), avg (In vitro release; Day 8): 0.45% | Cumulative Dex Release (ng), avg (In vitro release; Day 8): 3751.80 ng | Cumulative Dex Release (In vitro release; Day 8): 4281.72 ng and 3939.60 ng and 3034.10 ng | Cumulative Dex Release (%), avg (In vitro release; Day 10): 0.56% | Cumulative Dex Release (ng), avg (In vitro release; Day 10): 4651.15 ng | Cumulative Dex Release (In vitro release; Day 10): 5032.13 ng and 5126.71 ng and 3794.60 ng | Cumulative Dex Release (%), avg (In vitro release; Day 14): 0.78% | Cumulative Dex Release (ng), avg (In vitro release; Day 14): 6525.91 ng | Cumulative Dex Release (In vitro release; Day 14): 7249.57 ng and 6858.64 ng and 5469.52 ng

CC1CC2C3CCC4=CC(=O)C=CC4(C)C3(F)C(O)CC2(C)C1(O)C(=O)COC(=O)OCCOCCOCCOC(=O)OCC(=O)C1(O)C(C)CC2C3CCC4=CC(=O)C=CC4(C)C3(F)C(O)CC21C (centres unmarked) [Dex-TEG-Dex 30G x 6 mm implant]
Dex in aqueous humor (ng/ml) [3]: BQL | Dex in retina (ng/g) [3]: BQL | Dex in vitreous humor (ng/ml) [3]: BQL

CC12CCC(=O)C=C1CCC1C2C(O)CC2(C)C1CCC2(O)C(=O)COC(=O)OCCOCCOCCOC(=O)OCC(=O)C1(O)CCC2C3CCC4=CC(=O)CCC4(C)C3C(O)CC21C (centres unmarked) [HC-TEG-HC]
Cumulative HC Release (In vitro release; Day 1): 3582.46 ng and 3140.26 ng and 2450.67 ng | Cumulative HC Release (In vitro release; Day 1, mean): 3057.80 ng | Cumulative HC Release (In vitro release; Day 3): 8019.98 ng and 7816.75 ng and 5925.61 ng | Cumulative HC Release (In vitro release; Day 3, mean): 7254.11 ng | Cumulative HC Release (In vitro release; Day 7): 21489.19 ng and 20555.93 ng and 15454.82 ng | Cumulative HC Release (In vitro release; Day 7, mean): 19166.65 ng | Cumulative HC Release (In vitro release; Day 11): 36020.08 ng and 33028.17 ng and 24138.38 ng | Cumulative HC Release (In vitro release; Day 11, mean): 31062.21 ng | Cumulative HC Release (In vitro release; Day 14): 45741.74 ng and 40347.40 ng and 29842.17 ng | Cumulative HC Release (In vitro release; Day 14, mean): 38643.77 ng | Cumulative HC Release (%) (In vitro release; Day 1): 0.51% | Cumulative HC Release (%) (In vitro release; Day 3): 1.20% | Cumulative HC Release (%) (In vitro release; Day 7): 3.17% | Cumulative HC Release (%) (In vitro release; Day 11): 5.15% | Cumulative HC Release (%) (In vitro release; Day 14): 6.40%

CC1CC2C3CCC4=CC(=O)C=CC4(C)C3(F)C(O)CC2(C)C1(O)C(=O)COC(=O)OCCOCCOCCOC(=O)OCC(=O)C1(O)C(C)CC2C3CCC4=CC(=O)C=CC4(C)C3(F)C(O)CC21C (centres unmarked) [Dex-TEG-Dex (30G x 6 mm implant)]
FA Scoring ([4]; 7 days): 0 | FA Scoring ([4]; 136 days): 0 | FA Scoring ([4]; 360 d): 2 and 3 and 4 and 0 and 1
